For twelve compounds, IC50 results are on record in US11981680B2, “Substituted thienopyrroles as PAD4 inhibitors” (BRISTOL-MYERS SQUIBB COMPANY, priority 2018, dated 2024).

As a reminder, the IC50 is the concentration at which inhibition is half-maximal. A low value points to greater potency in that assay.

This assay deals with human PAD4 (hPAD4) (Homo sapiens (Human), UniProt Q9UM07). As to the kind of experiment: RFMS Human PAD4 Functional Assay. The following applies: rapid-fire mass spectrum (RFMS) assay; 5 nM hPAD4 enzyme, 250 μM BAEE, 30 min preincubation at 37° C. It is filed as biochemical. On the procedure: Compounds of the present invention were assayed as inhibitors of PAD4 using the assay protocol described below.
Sequence of human PAD4 (hPAD4) (Q9UM07 whole entry): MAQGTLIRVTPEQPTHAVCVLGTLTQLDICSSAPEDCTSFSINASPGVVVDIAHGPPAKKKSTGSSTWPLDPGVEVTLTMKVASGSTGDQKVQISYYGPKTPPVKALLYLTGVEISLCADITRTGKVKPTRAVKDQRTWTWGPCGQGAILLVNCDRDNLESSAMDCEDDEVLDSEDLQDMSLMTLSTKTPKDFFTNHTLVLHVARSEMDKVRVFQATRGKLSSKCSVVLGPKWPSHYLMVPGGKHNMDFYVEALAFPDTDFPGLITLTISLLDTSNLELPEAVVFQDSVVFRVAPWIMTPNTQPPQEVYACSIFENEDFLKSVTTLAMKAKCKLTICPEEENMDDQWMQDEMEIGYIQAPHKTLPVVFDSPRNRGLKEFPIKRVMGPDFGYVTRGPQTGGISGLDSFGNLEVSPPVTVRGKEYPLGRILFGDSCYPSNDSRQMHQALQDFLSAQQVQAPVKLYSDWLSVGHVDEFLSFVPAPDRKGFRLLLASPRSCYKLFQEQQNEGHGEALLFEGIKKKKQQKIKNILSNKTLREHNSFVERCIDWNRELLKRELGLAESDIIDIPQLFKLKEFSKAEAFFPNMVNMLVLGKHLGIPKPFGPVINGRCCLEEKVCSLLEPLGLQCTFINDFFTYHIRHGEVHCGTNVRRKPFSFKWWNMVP
RFMS Human PAD4 Functional Assay:
Compounds were solubilized in 100% DMSO to achieve a10 mM compound concentration. Compound stock solutions were stored at RT. A series of dilutions were prepared in DMSO and mixed 8 times with 20 μL mixing volume. Final top concentration of compound in the assay is 50 μM. Final assay conditions were as follows: • Reaction volume: 26 μl • Assay buffer: 25 mM hepes, pH 7.5, 5 mM NaCl, 1 mM DTT, 0.2 mg/ml BSA, 0.01% CHAPS, 50 μM Calcium, and 5 μM TPEN • Final concentrations: 5 nM hPAD4 enzyme, 250 μM BAEE, and 0.5% DMSO • Total incubation time: 30 mins compound and enzyme preincubation at 37° C., 90 min enzyme/substrate reaction, 30 min reaction with phenyl glyoxal at 37° C. • Stop solution: 40 μl 5% TCA in ACN
0.13 μL of compound solution was added to 13 μL of 10 nM PAD4 in assay buffer. After 30 min 13 μl of 500 μM of BAEE was added in 25 mM hepes, pH 7.5, 5 mM NaCl, 1 mM DTT, 0.2 mg/ml BSA, 0.01% CHAPS, 50 μM Calcium, 5 μM TPEN was added and the reaction incubated for 90 min at 37° C. The enzymatic reaction was quenched by addition of 15 μl of 6.1N TCA, 100% Final Concentration is 20%, 35 μl of 8.5 mM phenyl glyoxal (final concentration 4 mM) is then added and the reaction is incubated for 30 min at 37° C.
After 30 minutes the plates are spun down to remove all precipitate. The enzyme reaction was quenched with an equal volume of methanol containing internal standard (modified citrulline). Samples were loaded onto the Rapid Fire RF300 system (Agilent) wherein they were first sipped for 1000 ms and then directly loaded to a C18 separations cartridge using a mixture of acetonitrile containing 0.01% formic acid for 3000 ms desalting. The flow rate of the mobile phase was 1.5 ml/min. Once the samples were eluted from the cartridge, a mobile phase of acetonitrile containing 0.01% formic acid was used to move the samples into the mass spectrometer for 4000 ms at a flow rate of 1.25 ml/min/Sciex API5500 triple quadrupole mass spectrometer (Applied Biosystems) equipped with ESI was used to analyze the peptidyl citrulline and internal standard ions.
MRM transition of product and internal standard were monitored at m/z 424.5 to 350.4 and m/z 293 to 247 respectively. The dwell time for each transition was set at 200 ms, and the ESI voltage was used at 5500 with a source temperature of 400° C. Extracted ion peaks for each transition were integrated using the Rapid Fire Integrator software. Peak area of analyte was normalized with internal standard.).
For the compound `COc1cc(C(=O)N2C[C@H]3CC[C@@H]2[C@@H]3N)cc2nc(-c3cc4scc(-c5cccs5)c4n3CC3CC3)n(C)c12` [Example 38, ((1R,4R,7R)-7-amino-2-azabicyclo[2.2.1]heptan-2-yl)(2-(4-(cyclopropylmethyl)-3-(thiophen-2-yl)-4H-thieno[3,2-b]pyrrol-5-yl)-7-methoxy-1-methyl-1H-benzo[d]imidazol-5-yl)methanone], inhibition was half-maximal at 100 nM (IC50).

The compound `COc1cc(C(=O)N2C[C@H]3CC[C@@H]2[C@@H]3N)cc2nc(-c3cc4scc(CCC(N)=O)c4n3CC3CC3)n(C)c12` [Example 11, 3-(5-(5-((1R,4R,7R)-7-amino-2-azabicyclo[2.2.1]heptane-2-carbonyl)-7-methoxy-1-methyl-1H-benzo[d]imidazol-2-yl)-4-(cyclopropylmethyl)-4H-thieno[3,2-b]pyrrol-3-yl)propanamide] returned an IC50 of 47 nM.

`COc1cc(C(=O)N2C[C@H](N)C[C@@H](F)C2)cc2nc(-c3cc4scc(Br)c4n3CC3CC3)n(C)c12` [Example 31, ((3R,5R)-3-amino-5-fluoropiperidin-1-yl)(2-(3-bromo-4-(cyclopropylmethyl)-4H-thieno[3,2-b]pyrrol-5-yl)-7-methoxy-1-methyl-1H-benzo[d]imidazol-5-yl)methanone]: inhibition was half-maximal at 60 nM (IC50).

Compound `COc1cc(C(=O)N2C[C@H]3CC[C@@H]2[C@@H]3N)cc2nc(-c3cc4scc(C5CCOC5)c4n3CC3CC3)n(C)c12` (stereo partly drawn) [Example 12, ((1R,4R,7R)-7-amino-2-azabicyclo[2.2.1]heptan-2-yl)(2-(4-(cyclopropylmethyl)-3-(tetrahydrofuran-3-yl)-4H-thieno[3,2-b]pyrrol-5-yl)-7-methoxy-1-methyl-1H-benzo[d]imidazol-5-yl)methanone] gave an IC50 of 49 nM.

`COc1cc(C(=O)N2C[C@H](N)C[C@@H](F)C2)cc2nc(-c3cc4scc(-c5cnn(C)c5)c4n3CC3CC3)n(C)c12` [Example 33, ((3R,5R)-3-amino-5-fluoropiperidin-1-yl)(2-(4-(cyclopropylmethyl)-3-(1-methyl-1H-pyrazol-4-yl)-4H-thieno[3,2-b]pyrrol-5-yl)-7-methoxy-1-methyl-1H-benzo[d]imidazol-5-yl)methanone] registered a concentration for half-maximal inhibition (IC50) of 50 nM.

`COc1cc(C(=O)N2C[C@H]3CC[C@@H]2[C@@H]3N)cc2nc(-c3cc4scc(-c5ccncc5)c4n3CC3CC3)n(C)c12` [Example 47, ((1R,4R,7R)-7-amino-2-azabicyclo[2.2.1]heptan-2-yl)(2-(4-(cyclopropylmethyl)-3-(pyridin-4-yl)-4H-thieno[3,2-b]pyrrol-5-yl)-7-methoxy-1-methyl-1H-benzo[d]imidazol-5-yl)methanone]: the IC50 was 147 nM.

Compound `COc1cc(C(=O)N2C[C@H](N)C[C@@H](F)C2)cc2nc(-c3cc4sc(C)cc4n3CC3CC3)n(C)c12` [Example 28, ((3R,5R)-3-amino-5-fluoropiperidin-1-yl)(2-(4-(cyclopropylmethyl)-2-methyl-4H-thieno[3,2-b]pyrrol-5-yl)-7-methoxy-1-methyl-1H-benzo[d]imidazol-5-yl)methanone] had an IC50 of 67 nM.

The compound `COc1cc(C(=O)N2C[C@H]3CC[C@@H]2[C@@H]3N)cc2nc(-c3cc4scc(C5CC(O)C5)c4n3CC3CC3)n(C)c12` (single isomer, unassigned) [Example 21] came in with an IC50 of 38 nM.

`COc1cc(C(=O)N2C[C@H]3CC[C@@H]2[C@@H]3N)cc2nc(-c3cc4scc(C5CC6(CNC6)C5)c4n3CC3CC3)n(C)c12` [Example 20, ((1R,4R,7R)-7-amino-2-azabicyclo[2.2.1]heptan-2-yl)(2-(4-(cyclopropylmethyl)-3-(2-azaspiro[3.3]heptan-6-yl)-4H-thieno[3,2-b]pyrrol-5-yl)-7-methoxy-1-methyl-1H-benzo[d]imidazol-5-yl)methanone]: the IC50 turned out to be 36 nM.

For the compound `COc1cc(C(=O)N2C[C@H]3CC[C@@H]2[C@@H]3N)cc2nc(-c3cc4scc(C5CCC(O)CC5)c4n3CC3CC3)n(C)c12` (mixture of isomers) [Example 10, cis/trans-((1R,4R,7R)-7-amino-2-azabicyclo[2.2.1]heptan-2-yl)(2-(4-(cyclopropylmethyl)-3-(4-hydroxycyclohexyl)-4H-thieno[3,2-b]pyrrol-5-yl)-7-methoxy-1-methyl-1H-benzo[d]imidazol-5-yl)methanone], 46 nM corresponded to half-maximal inhibition (IC50).

The compound `COc1cc(C(=O)N2C[C@H]3CC[C@@H]2[C@@H]3N)cc2nc(-c3cc4scc(C5COC5)c4n3CC3CC3)n(C)c12` [Example 2, ((1R,4R,7R)-7-amino-2-azabicyclo[2.2.1]heptan-2-yl)(2-(4-(cyclopropylmethyl)-3-(oxetan-3-yl)-4H-thieno[3,2-b]pyrrol-5-yl)-7-methoxy-1-methyl-1H-benzo[d]imidazol-5-yl)methanone] came in with an IC50 of 63 nM.

`COc1cc(C(=O)N2C[C@H](N)C[C@@H](F)C2)cc2nc(-c3cc4sccc4n3CC3CC3)n(C)c12` [Example 30, ((3R,5R)-3-amino-5-fluoropiperidin-1-yl)(2-(4-(cyclopropylmethyl)-4H-thieno[3,2-b]pyrrol-5-yl)-7-methoxy-1-methyl-1H-benzo[d]imidazol-5-yl)methanone] registered an IC50 of 86 nM.
